The values that follow come from patent US20070010402A1, “Novel herbicides, usage thereof, novel thienopyrimidine derivatives, intermediates of the same, and process for production thereof” (NIHON NOHYAKU CO., LTD.,, priority 2002, published 2007).

Data set [1] deals with Echinochloa oryzicola. Put plainly: Submerged foliar treatment test (Test Example 3). The data set is classed as in vivo. The settings on record: water depth 3 cm, cotyledon to 1-leaf stage, wettable powder, active ingredient 10 g/a, 28th day from the treatment. The protocol: (§1) The herbicidal effect was evaluated in terms of herbicidal rate obtained from the following equation: Herbicidal rate (%)=[1−(Weight of weeds above the ground in a treated plot)/(Weight of weeds above the ground in a non-treated plot)]×100
(§2) and was expressed by herbicidal index according to the following criteria.
(§3) Alluvial soil from a paddy field was put in a resin-made vat having an area of 200 cm^2. After fertilization, seeds of Echinochloa oryzicola, Rotala indica and Scirpus juncoides were cast on the soil and uniformly covered with the soil, and water was poured onto the soil to keep a water depth of 3 cm. Then, cultivation was continued in a greenhouse, and when the weeds to be tested reached the cotyledon stage to 1-leaf stage, the wettable powder obtained in Formulation Example 1 was diluted with water and a predetermined amount thereof was added dropwise uniformly to the weeds by means of a pipette to give 10 g of the active ingredient per an are. Thereafter, cultivation was further continued in the greenhouse, and the herbicidal effect was examined on the 28th day from the treatment. The results obtained are shown in Table 9 (the compound numbers in Table 9 correspond to those in Tables 1 to 6).

For data set [2], the system named is Rotala indica. Put plainly: Submerged foliar treatment test (Test Example 3). The settings on record: water depth 3 cm, cotyledon to 1-leaf stage, wettable powder, active ingredient 10 g/a, 28th day from the treatment. It counts as in vivo. The method, then: as §1, §2, §3
The test system of data set [3] is Scirpus juncoides. Put plainly: Submerged foliar treatment test (Test Example 3). It counts as in vivo. Conditions: water depth 3 cm, cotyledon to 1-leaf stage, wettable powder, active ingredient 10 g/a, 28th day from the treatment. The protocol:
as §1, §2, §3

The test system of data set [4] is Brassica juncea. The experiment in a line: Field foliar treatment test (Test Example 1). The data set is classed as in vivo. The settings on record: foliar spray at 1.0- to 2.0-leaf stage, wettable powder, active ingredient 10 g/a, 21st day from the treatment. The method, then:
(§4) Alluvial soil from a field was put in a resin-made vat having an area of 200 cm^2. After fertilization, the seeds of Echinochloa crus-galli, Brassica juncea, and Ipomoea purpurea were cast on the soil and uniformly covered with the soil. Then, cultivation was continued in a greenhouse, and when the weeds to be tested reached the 1.0- to 2.0-leaf stage, the wettable powder obtained in Formulation Example 1 was diluted with water and a predetermined amount thereof was sprayed uniformly to the weeds by means of a small-sized power pressure spray to give 10 g of the active ingredient per an are. Thereafter, cultivation was further continued in the greenhouse, and the herbicidal effect was examined on the 21st day from the treatment. The results obtained are shown in Table 7 (the compound numbers in Table 7 correspond to those in Table 1 to 6). The herbicidal effect was evaluated in terms of herbicidal rate obtained from the following equation: Herbicidal rate (%)=[1−(Weight of weeds above the ground in a treated plot)/(Weight of weeds above the ground in a non-treated plot)]×100 and was expressed by herbicidal index according to the following criteria. [table]

Data set [5] concerns Echinochloa crus-galli. Put plainly: Field foliar treatment test (Test Example 1). The data set is classed as in vivo. Conditions: foliar spray at 1.0- to 2.0-leaf stage, wettable powder, active ingredient 10 g/a, 21st day from the treatment. The protocol:
as §4

For data set [6], the system named is Ipomoea purpurea. Put plainly: Field foliar treatment test (Test Example 1). The data set is classed as in vivo. The settings on record: foliar spray at 1.0- to 2.0-leaf stage, wettable powder, active ingredient 10 g/a, 21st day from the treatment. The protocol: as §4

With `Cc1cc2c(-c3cccc(C(F)(F)F)c3)nc(Cl)nc2s1` [Compound No. 5-4, 2-chloro-6-methyl-4-[3-(trifluoromethyl)phenyl]thieno[2,3-d]pyrimidine], the melting point – broadly, the temperature, or range, at which the solid turns liquid – worked out at 108 °C.
With `Cc1cc2c(-c3cccc(Cl)c3)nc(Cl)nc2s1` [Compound No. 5-15, 2-chloro-4-(3-chlorophenyl)-6-methylthieno[2,3-d]pyrimidine], the melting point lay in the range of 118 to 120 °C. Moreover, the “Herbicidal effect Echinochloa oryzicola (herbicidal index)” value in data set [1] is recorded as 5 (91 to 100). In addition, in data set [2], the “Herbicidal effect Rotala indica (herbicidal index)” value is recorded as 5 (91 to 100). Besides, in data set [3], the “Herbicidal effect Scirpus juncoides (herbicidal index)” value is 3 (51 to 70).
`Cc1cc2c(-c3sccc3C)nc(Cl)nc2s1` [Compound No. 5-22, 2-chloro-6-methyl-4-(3-methylthiophen-2-yl)thieno[2,3-d]pyrimidine] came in with a melting point of 127 °C.
For `Cc1cc2c(-c3sc(C=O)cc3C)nc(Cl)nc2s1` [Compound No. 5-23, 2-chloro-4-(5-formyl-3-methylthiophen-2-yl)-6-methylthieno[2,3-d]pyrimidine], the melting point was 204 to 206 °C (dec.).
Take `Cc1cc2nc(Cl)nc(-c3cccc(C(F)(F)F)c3)c2s1` [Compound No. 5-34, 2-chloro-6-methyl-4-[3-(trifluoromethyl)phenyl]thieno[3,2-d]pyrimidine]: the melting point was 174 to 176 °C (dec.).
The compound `Cc1cc2c(-c3cccc(C(F)(F)F)c3)ncnc2s1` [Compound No. 6-9, 6-methyl-4-[3-(trifluoromethyl)phenyl]thieno[2,3-d]pyrimidine] gave a melting point of 70 to 72 °C.
As to `Cc1cc2c(-c3cccc(C(F)(F)F)c3)nc(C#N)nc2s1` [Compound No. 6-10, 2-cyano-6-methyl-4-[3-(trifluoromethyl)phenyl]thieno[2,3-d]pyrimidine], the melting point lay within 121 to 122 °C. Further, the “Herbicidal effect Echinochloa oryzicola (herbicidal index)” value in data set [1] is recorded as 5 (91 to 100). In addition, the “Herbicidal effect Rotala indica (herbicidal index)” value in data set [2] is 5 (91 to 100). Also, in data set [3], the “Herbicidal effect Scirpus juncoides (herbicidal index)” value is reported as 4 (71 to 90).
As to `Cc1cc2c(-c3cccc(C(F)(F)F)c3)nc(COCC(F)(F)F)nc2s1` [Compound No. 6-17, 6-methyl-2-[(2,2,2-trifluoroethoxy)methyl]-4-[3-(trifluoromethyl)phenyl]thieno[2,3-d]pyrimidine], the melting point was in the range of 40 to 41 °C. Also, the “Herbicidal effect Echinochloa oryzicola (herbicidal index)” value in data set [1] was 5 (91 to 100). Moreover, the “Herbicidal effect Rotala indica (herbicidal index)” value in data set [2] is reported as 5 (91 to 100). Further, in data set [3], the “Herbicidal effect Scirpus juncoides (herbicidal index)” value is 3 (51 to 70).
For the compound `Cc1cc2c(-c3cccc(C(F)(F)F)c3)nc(-c3ccc(C(F)(F)F)cc3)nc2s1` [Compound No. 6-18, 6-methyl-2-[4-(trifluoromethyl)phenyl]-4-[3-(trifluoromethyl)phenyl]thieno[2,3-d]pyrimidine], the melting point was in the range of 134 to 136 °C. The “Herbicidal effect Echinochloa oryzicola (herbicidal index)” value in data set [1] is recorded as 3 (51 to 70). The “Herbicidal effect Rotala indica (herbicidal index)” value in data set [2] is reported as 4 (71 to 90). Also, in data set [3], the “Herbicidal effect Scirpus juncoides (herbicidal index)” value was 1 (6 to 30).
In turn, `Cc1cc2c(Oc3cccc(C(F)(F)F)c3)nc(OCC(F)(F)F)nc2s1` [Compound No. 6-129, 6-methyl-2-(2,2,2-trifluoroethoxy)-4-[3-(trifluoromethyl)phenoxy]thieno[2,3-d]pyrimidine] registered a melting point of 124 to 125 °C. Also, in data set [1], the “Herbicidal effect Echinochloa oryzicola (herbicidal index)” value is recorded as 5 (91 to 100). In addition, in data set [2], the “Herbicidal effect Rotala indica (herbicidal index)” value is 4 (71 to 90). In addition, the “Herbicidal effect Scirpus juncoides (herbicidal index)” value in data set [3] is on record as 2 (31 to 50).
Compound `Cc1cc2c(Oc3cccc(C(F)(F)F)c3)nc(CCC(F)(F)F)nc2s1` [Compound No. 6-130, 6-methyl-4-[3-(trifluoromethyl)phenoxy]-2-(3,3,3-trifluoropropyl)thieno[2,3-d]pyrimidine] showed a melting point of 85 °C. The “Herbicidal effect Brassica juncea (herbicidal index)” value in data set [4] is recorded as 4 (71 to 90). Further, the “Herbicidal effect Echinochloa crus-galli (herbicidal index)” value in data set [5] was 2 (31 to 50). The “Herbicidal effect Ipomoea purpurea (herbicidal index)” value in data set [6] was 3 (51 to 70).
In turn, `CNc1nc(-c2ccc(C(F)(F)F)cc2)c2cc(C)sc2n1` [Compound No. 6-168, 6-methyl-2-(methylamino)-4-[4-(trifluoromethyl)phenyl]thieno[2,3-d]pyrimidine] yielded a melting point of 233 °C.
For `CSc1nc(-c2ccc(C(F)(F)F)cc2)c2cc(C)sc2n1` [Compound No. 6-171, 6-methyl-2-methylthio-4-[4-(trifluoromethyl)phenyl]thieno[2,3-d]pyrimidine], the melting point stood at 113 °C.
In the case of `Cc1cc2c(-c3cccc(C(F)(F)F)c3)nc(C(=O)O)nc2s1` [Compound No. 6-180, 6-methyl-4-[3-(trifluoromethyl)phenyl]thieno[2,3-d]pyrimidine-2-carboxylic acid], the melting point is 226 to 227 °C (dec.).
`Cc1cc2nc(OC(C)C)nc(-c3cccc(C(F)(F)F)c3)c2s1` [Compound No. 6-231, 2-isopropoxy-6-methyl-4-[3-(trifluoromethyl)phenyl]thieno[3,2-d]pyrimidine] displayed a melting point of 106 °C. Further, in data set [4], the “Herbicidal effect Brassica juncea (herbicidal index)” value was 5 (91 to 100). Besides, the “Herbicidal effect Echinochloa crus-galli (herbicidal index)” value in data set [5] is on record as 4 (71 to 90). Also, the “Herbicidal effect Ipomoea purpurea (herbicidal index)” value in data set [6] is listed as 5 (91 to 100).
